PMC8217813, “Bridging Computational Vaccinology and Vaccine Development Through Systematic Identification, Characterization, and Downselection of Conserved and Variable Circumsporozoite Protein CD4 T Cell Epitopes From Diverse Plasmodium falciparum Strains” (Frontiers in Immunology, 2021)
pIC50: −log10 of the molar value. Peptide text beside a SMILES is read from it.

Experiments:
[1] = target: HLA-DRB1*0701 (Homo sapiens, UniProt P01903+P01911, A100R/A102G/A103Q/D57E/D86V/E43K/F76Y/K127E/L162R/M171V/P40G/Q125H/Q99D/R33Q/R42Y/R54Q/S133A/S66F/T210M/V115G/Y107V/Y59L/Y89S); test: In vitro class II HLA binding competition assay
Method: (§1) EpiVax conducted in vitro quantification of peptide-HLA binding affinity utilizing a competition assay format per the methodology described in ([35]). Briefly, a fluorescent-labeled, high-binding reference peptide and titrating concentrations of test peptide were incubated in a 96-well plate format with limiting concentrations of class II HLA monomers in aqueous buffer for 24-hours. Post incubation, the mixtures were moved to a 96-well plate coated with anti-HLA-DR antibody to capture HLA-peptide complexes. Time-resolved fluorescence measurement of the bound labeled reference peptide complex present in each mixture were detected with a europium-linked probe via fluorescent spectrophotometry using a SpectraMax M5 system. HLA binding affinity of each test peptide was expressed as the percent inhibition of reference peptide binding. Percent inhibition values (across the test peptide titration range) were used to calculate the half maximal inhibitory concentration (IC50) of each test peptide. For these studies, test peptides were assessed using a range of final concentrations from 100,000 nM to 100 nM and all peptides were reconstituted in dimethyl sulfoxide (DMSO).

[2] = target: HLA-DRB1*0801 (Homo sapiens, UniProt P01903+P01911, A100R/A103L/A169T/D86S/F76Y/H45Y/I96F/K41T/L162R/M171V/P40S/Q125H/Q178H/Q39Y/Q99D/R218S/R42G/S66Y/V115G/W38E); test: In vitro class II HLA binding competition assay; settings: competition with fluorescent-labeled reference peptide, class II HLA monomers, 24-hours, test peptide 100,000 nM to 100 nM, time-resolved fluorescence
Method: as §1

[3] = target: T1, HLA-DRB1*1501 (Homo sapiens, UniProt P01903+P01911); test: In vitro class II HLA binding competition assay
T1 construct: purchased
Method: as §1

[4] = target: T2, HLA-DRB1*0101 (Homo sapiens, UniProt P01903+P01911, A100R/D57E/F55L/F60I/F76Y/I96L/L162R/M171V/P40L/Q125E/R42F/V115G/Y59C); test: In vitro class II HLA binding competition assay; settings: competition with fluorescent-labeled reference peptide, class II HLA monomers, 24-hours, test peptide 100,000 nM to 100 nM, time-resolved fluorescence
T2 construct: purchased
Method: as §1

[5] = target: HLA-DRB1*1301 (Homo sapiens, UniProt P01903+P01911, A100E/A169T/K41T/L162R/M171V/P40S/Q125H/Q178H/Q39Y/Q99D/R42S/S66N/T262R/W38E/Y61H); test: In vitro class II HLA binding competition assay; settings: competition with fluorescent-labeled reference peptide, class II HLA monomers, 24-hours, test peptide 100,000 nM to 100 nM, time-resolved fluorescence
Method: as §1

[6] = target: T3, HLA-DRB1*1101 (Homo sapiens, UniProt P01903+P01911, A100R/A169T/A87E/I96F/K41T/L162R/M171V/P40S/Q125H/Q178H/Q39Y/Q99D/R42S/S66Y/T262R/V115G/W38E); test: In vitro class II HLA binding competition assay; settings: competition with fluorescent-labeled reference peptide, class II HLA monomers, 24-hours, test peptide 100,000 nM to 100 nM, time-resolved fluorescence
T3 construct: purchased
Method: as §1

[7] = target: T4, HLA-DRB1*0401 (Homo sapiens, UniProt P01903+P01911, A100K/A169T/F76Y/I96L/K127E/L162R/M171V/N62H/P40V/Q125Y/R42H/S133A/S149N/S66Y/V115G/V209L/W38E); test: In vitro class II HLA binding competition assay
T4 construct: purchased
Method: as §1

[8] = tested on: CD4 T cells co-cultured with autologous DCs from PBMCs; assay type: cell-based, human; settings: positive = Stimulation Index ≥1.5-fold above baseline, 5 µg/mL peptide

**Q.** `CC[C@H](C)[C@H](NC(C)=O)C(=O)N[C@H](C(=O)N[C@@H](CCC(=O)O)C(=O)N[C@@H](Cc1ccc(O)cc1)C(=O)N[C@@H](CC(C)C)C(=O)N[C@@H](CCCCN)C(=O)N[C@@H](CCCCN)C(=O)N[C@H](C(=O)N[C@@H](CCC(N)=O)C(=O)N[C@@H](CC(N)=O)C(=O)N[C@@H](CO)C(=O)N[C@@H](CC(C)C)C(=O)N[C@@H](CO)C(=O)N[C@H](C(=O)N[C@@H](CCC(=O)O)C(=O)N[C@@H](Cc1c[nH]c2ccccc12)C(=O)N[C@@H](CO)C(=O)N1CCC[C@H]1C(=O)N[C@@H](CS)C(=O)N[C@@H](CO)C(N)=O)[C@@H](C)O)[C@@H](C)CC)[C@@H](C)O` [ICS2] (Ac-ITEYLKKIQNSLSTEWSPCS-NH2) was tested. Which pIC50 [1] did it give?
**A.** Its pIC50 is 4.70.

**Q.** And the pIC50 [2]?
**A.** The pIC50 was 5.32.

**Q.** And the pIC50 [3]?
**A.** The pIC50 was 5.07.

**Q.** And the pIC50 [4]?
**A.** Its pIC50 is 4.08.

**Q.** What about the pIC50 [5] of the same molecule?
**A.** Its pIC50 is 4.14.

**Q.** And the pIC50 [6]?
**A.** The pIC50 was 4.36.

**Q.** What about the pIC50 [7] of the same molecule?
**A.** The pIC50 was 6.42.

**Q.** And the “Percentage of donors demonstrating IFN-γ responses, DR1” value ([8]; DR1 donors N=5, ICCS after 14-day co-culture)?
**A.** The value was 40%.

**Q.** What about the “Percentage of donors demonstrating IL-2 responses, DR1” value ([8]; DR1 donors N=5, ICCS) of the same molecule?
**A.** The value was 40%.

**Q.** What about the “Percentage of donors demonstrating IL-4 responses, DR1” value ([8]; DR1 donors N=5, ICCS) of the same molecule?
**A.** The value was 0%.

**Q.** What about the “Percentage of donors demonstrating IL-10 responses, DR1” value ([8]; DR1 donors N=5, ICCS) of the same molecule?
**A.** The value was 0%.

**Q.** And the “Percentage of donors demonstrating TNF-α responses, DR1” value ([8]; DR1 donors N=5, ICCS)?
**A.** The value was 40%.

**Q.** What about the “Percentage of donors demonstrating IFN-γ responses, DR3” value ([8]; DR3 donors N=6, ICCS after 14-day co-culture) of the same molecule?
**A.** Its value is 33%.

**Q.** What about the “Percentage of donors demonstrating IL-2 responses, DR3” value ([8]; DR3 donors N=6, ICCS) of the same molecule?
**A.** The value was 33%.

**Q.** And the “Percentage of donors demonstrating IL-4 responses, DR3” value ([8]; DR3 donors N=6, ICCS)?
**A.** The value was 33%.

**Q.** What about the “Percentage of donors demonstrating IL-10 responses, DR3” value ([8]; DR3 donors N=6, ICCS) of the same molecule?
**A.** Its value is 33%.

**Q.** What about the “Percentage of donors demonstrating TNF-α responses, DR3” value ([8]; DR3 donors N=6, ICCS) of the same molecule?
**A.** Its value is 17%.

**Q.** And the “Percentage of donors demonstrating IFN-γ responses, DR4” value ([8]; DR4 donors N=10, ICCS after 14-day co-culture)?
**A.** The value was 40%.

**Q.** What about the “Percentage of donors demonstrating IL-2 responses, DR4” value ([8]; DR4 donors N=10, ICCS) of the same molecule?
**A.** The value was 20%.

**Q.** What about the “Percentage of donors demonstrating IL-4 responses, DR4” value ([8]; DR4 donors N=10, ICCS) of the same molecule?
**A.** The value was 10%.

**Q.** And the “Percentage of donors demonstrating IL-10 responses, DR4” value ([8]; DR4 donors N=10, ICCS)?
**A.** The value was 0%.

**Q.** And the “Percentage of donors demonstrating TNF-α responses, DR4” value ([8]; DR4 donors N=10, ICCS)?
**A.** Its value is 50%.

**Q.** And the “Percentage of donors demonstrating IFN-γ responses, DR7” value ([8]; DR7 donors N=4, ICCS after 14-day co-culture)?
**A.** The value was 50%.

**Q.** What about the “Percentage of donors demonstrating IL-2 responses, DR7” value ([8]; DR7 donors N=4, ICCS) of the same molecule?
**A.** The value was 0%.

**Q.** And the “Percentage of donors demonstrating IL-4 responses, DR7” value ([8]; DR7 donors N=4, ICCS)?
**A.** The value was 0%.

**Q.** And the “Percentage of donors demonstrating IL-10 responses, DR7” value ([8]; DR7 donors N=4, ICCS)?
**A.** Its value is 0%.

**Q.** And the “Percentage of donors demonstrating TNF-α responses, DR7” value ([8]; DR7 donors N=4, ICCS)?
**A.** The value was 25%.

**Q.** What about the “Percentage of donors demonstrating IFN-γ responses, DR8” value ([8]; DR8 donors N=4, ICCS after 14-day co-culture) of the same molecule?
**A.** Its value is 50%.

**Q.** What about the “Percentage of donors demonstrating IL-2 responses, DR8” value ([8]; DR8 donors N=4, ICCS) of the same molecule?
**A.** Its value is 25%.

**Q.** And the “Percentage of donors demonstrating IL-4 responses, DR8” value ([8]; DR8 donors N=4, ICCS)?
**A.** The value was 0%.

**Q.** And the “Percentage of donors demonstrating IL-10 responses, DR8” value ([8]; DR8 donors N=4, ICCS)?
**A.** Its value is 25%.

**Q.** What about the “Percentage of donors demonstrating TNF-α responses, DR8” value ([8]; DR8 donors N=4, ICCS) of the same molecule?
**A.** The value was 50%.

**Q.** And the “Percentage of donors demonstrating IFN-γ responses, DR9” value ([8]; DR9 donors N=4, ICCS after 14-day co-culture)?
**A.** The value was 0%.

**Q.** What about the “Percentage of donors demonstrating IL-2 responses, DR9” value ([8]; DR9 donors N=4, ICCS) of the same molecule?
**A.** Its value is 25%.

**Q.** And the “Percentage of donors demonstrating IL-4 responses, DR9” value ([8]; DR9 donors N=4, ICCS)?
**A.** Its value is 0%.

**Q.** And the “Percentage of donors demonstrating IL-10 responses, DR9” value ([8]; DR9 donors N=4, ICCS)?
**A.** Its value is 0%.

**Q.** What about the “Percentage of donors demonstrating TNF-α responses, DR9” value ([8]; DR9 donors N=4, ICCS) of the same molecule?
**A.** The value was 25%.

**Q.** And the “Percentage of donors demonstrating IFN-γ responses, DR11” value ([8]; DR11 donors N=4, ICCS after 14-day co-culture)?
**A.** Its value is 25%.

**Q.** What about the “Percentage of donors demonstrating IL-2 responses, DR11” value ([8]; DR11 donors N=4, ICCS) of the same molecule?
**A.** Its value is 25%.

**Q.** And the “Percentage of donors demonstrating IL-4 responses, DR11” value ([8]; DR11 donors N=4, ICCS)?
**A.** The value was 0%.

**Q.** What about the “Percentage of donors demonstrating IL-10 responses, DR11” value ([8]; DR11 donors N=4, ICCS) of the same molecule?
**A.** Its value is 0%.

**Q.** What about the “Percentage of donors demonstrating TNF-α responses, DR11” value ([8]; DR11 donors N=4, ICCS) of the same molecule?
**A.** The value was 50%.

**Q.** What about the “Percentage of donors demonstrating IFN-γ responses, DR13” value ([8]; DR13 donors N=7, ICCS after 14-day co-culture) of the same molecule?
**A.** Its value is 57%.

**Q.** And the “Percentage of donors demonstrating IL-2 responses, DR13” value ([8]; DR13 donors N=7, ICCS)?
**A.** Its value is 29%.

**Q.** And the “Percentage of donors demonstrating IL-4 responses, DR13” value ([8]; DR13 donors N=7, ICCS)?
**A.** The value was 14%.

**Q.** And the “Percentage of donors demonstrating IL-10 responses, DR13” value ([8]; DR13 donors N=7, ICCS)?
**A.** The value was 29%.

**Q.** And the “Percentage of donors demonstrating TNF-α responses, DR13” value ([8]; DR13 donors N=7, ICCS)?
**A.** Its value is 71%.

**Q.** What about the “Percentage of donors demonstrating IFN-γ responses, DR15” value ([8]; DR15 donors N=7, ICCS after 14-day co-culture) of the same molecule?
**A.** The value was 43%.

**Q.** And the “Percentage of donors demonstrating IL-2 responses, DR15” value ([8]; DR15 donors N=7, ICCS)?
**A.** Its value is 14%.

**Q.** And the “Percentage of donors demonstrating IL-4 responses, DR15” value ([8]; DR15 donors N=7, ICCS)?
**A.** The value was 0%.

**Q.** And the “Percentage of donors demonstrating IL-10 responses, DR15” value ([8]; DR15 donors N=7, ICCS)?
**A.** Its value is 14%.

**Q.** What about the “Percentage of donors demonstrating TNF-α responses, DR15” value ([8]; DR15 donors N=7, ICCS) of the same molecule?
**A.** Its value is 29%.
